Results reported in patent US20230143604A1, “QW DOSING OF GIP RECEPTOR AGONIST PEPTIDE COMPOUNDS AND USES THEREOF” (TAKEDA PHARMACEUTICAL COMPANY LIMITED, priority 2020, published 2023).
pEC50: −log10 of the molar value.

Key:
human GLP-1R = target: T1, human GLP-1R (Homo sapiens, UniProt P43220); experiment: Human GLP1R agonist activity, intracellular cAMP accumulation; assay type: cell-based; conditions: HEK-293T cells overexpressing human GLP-1R, 1 hr, read-out: Human GLP1R cAMP EC50, HEK293T
T1 construct: HEK-293T cells overexpressing full-length human GLP-1R; FLAG (N); host or cells: HEK-293T
Procedure: Cells are cultured per the manufacturer's protocol in DMEM with 10% fetal bovine serum and 1 μg/mL puromycin and stored in frozen aliquots to be used as assay ready cells. On the day of the assay, cells are removed from frozen storage, washed two times in 1× Kreb's Ringer Buffer (Zenbio, Research Triangle Park, N.C.), and re-suspended to a concentration of 4×10^5 cells/mL in 1× Kreb's Ringer Buffer. […] Cells are incubated with test compound for 1 hr at room temperature in the dark, and cAMP accumulation is measured using the Cisbio HiRange cAMP assay kit (Bedford, Mass.) per the manufacturer's protocol. Anti-cAMP antibody and d2-cAMP tracer reagents diluted in lysis/detection buffer are incubated in the dark for 1 hr, and results are measured on an Envision plate reader (Perkin Elmer, Waltham, Mass.). Data is normalized using 1 nm GLP-1 as 100% activity, and DMSO alone as 0% activity.

C57BL/6J mice = experiment: Oral glucose tolerance test (OGTT); assay type: in vivo; conditions: 3 nmol/kg s.c., 24 hours before glucose loading
Procedure: An oral glucose tolerance test (OGTT) was carried out using C57BL/6J mice with a 50% dextrose solution dosed at 5 ml/kg. Testing concentrations of 0.1 nmol/kg, 0.3 nmmol/kg, 3 nmol/kg or 10 nmol/kg were selected depending on the peptide. Each peptide or a vehicle (control group) was subcutaneously administered 24 hours (unless shown otherwise) before glucose loading and the blood glucose was measured at 0, 15, 30, and 60 minutes after glucose dosing.
% inhibition=(1−(AUC cpd−AUC naïve/AUC veh−AUC naïve))×100.

physchem = experiment: physchem
Summary of the method: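 3 mg of peptide treated with 100 μL portions of 200 mM phosphate buffer pH 7.4, sonicating/vortexing up to 1 min, with further buffer added until fully dissolved. Solubility then quantified by HPLC.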

T1 sequence (P43220 24-463): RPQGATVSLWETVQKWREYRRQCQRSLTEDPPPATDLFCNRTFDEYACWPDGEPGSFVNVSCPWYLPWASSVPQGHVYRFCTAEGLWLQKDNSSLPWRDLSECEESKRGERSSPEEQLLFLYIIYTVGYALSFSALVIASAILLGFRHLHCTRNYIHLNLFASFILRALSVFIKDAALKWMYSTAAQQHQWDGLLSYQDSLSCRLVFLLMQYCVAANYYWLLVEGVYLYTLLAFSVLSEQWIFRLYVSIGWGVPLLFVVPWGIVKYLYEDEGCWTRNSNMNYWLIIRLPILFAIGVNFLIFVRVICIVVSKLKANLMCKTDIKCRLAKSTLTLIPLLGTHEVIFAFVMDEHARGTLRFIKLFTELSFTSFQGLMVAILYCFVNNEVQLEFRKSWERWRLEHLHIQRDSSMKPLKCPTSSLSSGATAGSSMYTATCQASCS

| Compound | pEC50 (human GLP-1R) | Oral Glucose Tolerance Test Percent decrease in blood glucose AUC (%) over 60 mins (C57BL/6J mice) | solubility (physchem; pH 7.4) | solubility (physchem; pH 7.4, aqueous buffer) | solubility (physchem; pH 7.4, aqueous buffer, pH 7.4 Phosphate Buffer - Solubility, 200 mM Phosphate buffer pH 7.4) | solubility (physchem; pH 7.4, solubility in phosphate buffer at pH 7.4, 200 mM phosphate buffer pH 7.4) |
| --- | --- | --- | --- | --- | --- | --- |
| CC[C@H](C)[C@H](NC(=O)[C@H](CO)NC(=O)[C@H](Cc1ccc(O)cc1)NC(=O)[C@H](CC(=O)O)NC(=O)[C@H](CO)NC(=O)[C@@H](NC(=O)[C@H](Cc1ccccc1)NC(=O)[C@@H](NC(=O)CNC(=O)[C@H](CCC(=O)O)NC(=O)C(C)(C)NC(=O)[C@H](Cc1ccc(O)cc1)NC)[C@@H](C)O)[C@@H](C)CC)C(=O)N[C@@H](C)C(=O)N[C@@H](CCCCNC(=O)CNC(=O)CNC(=O)CNC(=O)CNC(=O)CNC(=O)CCCCCCCCCCCCCCCCC(=O)O)C(=O)N[C@@H](CC(=O)O)C(=O)N[C@@H](CCCNC(=N)N)C(=O)NC(C)(C)C(=O)N[C@@H](C)C(=O)N[C@@H](CCC(N)=O)C(=O)NC(C)(C)C(=O)N[C@@H](CC(=O)O)C(=O)N[C@@H](Cc1ccccc1)C(=O)N[C@H](C(=O)N[C@@H](CC(N)=O)C(=O)N[C@@H](Cc1c[nH]c2ccccc12)C(=O)N[C@@H](CC(C)C)C(=O)N[C@@H](CC(C)C)C(=O)N[C@@H](C)C(=O)N[C@@H](CCC(N)=O)C(=O)N[C@@H](CO)C(=O)N1CCC[C@H]1C(=O)N[C@@H](CO)C(=O)N[C@@H](CO)C(=O)NCC(=O)O)C(C)C [Compound 71] | 7.46 | 68% (3 nmol/kg) |  |  |  |  |
| CC[C@H](C)[C@H](NC(=O)[C@H](Cc1ccccc1)NC(=O)[C@@H](NC(=O)CNC(=O)[C@H](CCC(=O)O)NC(=O)C(C)(C)NC(=O)[C@@H](N)Cc1ccc(O)cc1)[C@@H](C)O)C(=O)N[C@@H](CO)C(=O)N[C@@H](CC(=O)O)C(=O)N[C@@H](Cc1ccc(O)cc1)C(=O)N[C@@H](CO)C(=O)N[C@H](C(=O)NC(C)(C)C(=O)N[C@@H](CCCCNC(=O)CNC(=O)CNC(=O)CNC(=O)CNC(=O)CNC(=O)CCCCCCCCCCCCCCCCC(=O)O)C(=O)N[C@@H](CC(=O)O)C(=O)N[C@@H](CCCNC(=N)N)C(=O)N[C@@H](C)C(=O)N[C@@H](C)C(=O)N[C@@H](CCC(N)=O)C(=O)NC(C)(C)C(=O)N[C@@H](CC(=O)O)C(=O)N[C@@H](Cc1ccccc1)C(=O)N[C@H](C(=O)N[C@@H](CCC(=O)O)C(=O)N[C@@H](Cc1c[nH]c2ccccc12)C(=O)N[C@@H](CC(C)C)C(=O)N[C@@H](CC(C)C)C(=O)N[C@@H](C)C(=O)N[C@@H](CCC(N)=O)C(=O)N[C@@H](CCCNC(=N)N)C(=O)NCC(=O)O)C(C)C)[C@@H](C)CC [Compound 145] | 8.03 | 52% (3 nmol/kg) | ≥ 15 mg/mL | ≥ 30 mg/mL |  |  |
| CC[C@H](C)[C@H](NC(=O)[C@H](Cc1ccccc1)NC(=O)[C@@H](NC(=O)CNC(=O)[C@H](CCC(=O)O)NC(=O)C(C)(C)NC(=O)[C@H](Cc1ccc(O)cc1)NC)[C@@H](C)O)C(=O)N[C@@H](CO)C(=O)N[C@@H](CC(=O)O)C(=O)N[C@@H](Cc1ccc(O)cc1)C(=O)N[C@@H](CO)C(=O)N[C@H](C(=O)NC(C)(C)C(=O)N[C@@H](CC(C)C)C(=O)N[C@@H](CC(=O)O)C(=O)N[C@@H](CO)C(=O)N[C@@H](CCCCNC(=O)CNC(=O)CNC(=O)CNC(=O)CNC(=O)CNC(=O)CNC(=O)CCCCCCCCCCCCCCCCC(=O)O)C(=O)N[C@@H](C)C(=O)N[C@@H](CCC(N)=O)C(=O)NC(C)(C)C(=O)N[C@@H](CC(=O)O)C(=O)N[C@@H](Cc1ccccc1)C(=O)N[C@H](C(=O)N[C@@H](CC(N)=O)C(=O)N[C@@H](Cc1c[nH]c2ccccc12)C(=O)N[C@@H](CC(C)C)C(=O)N[C@@H](CC(C)C)C(=O)N[C@@H](C)C(=O)N[C@@H](CCC(N)=O)C(=O)N[C@@H](CCCNC(=N)N)C(=O)NCC(=O)O)C(C)C)[C@@H](C)CC [Compound 64] | 6.96 | 53% (3 nmol/kg) | ≥ 15 mg/mL | ≥ 30 mg/mL |  |  |
| CC[C@H](C)[C@H](NC(=O)[C@H](Cc1ccccc1)NC(=O)[C@@H](NC(=O)CNC(=O)[C@H](CCC(=O)O)NC(=O)C(C)(C)NC(=O)[C@H](Cc1ccc(O)cc1)NC)[C@@H](C)O)C(=O)N[C@@H](CO)C(=O)N[C@@H](CC(=O)O)C(=O)N[C@@H](Cc1ccc(O)cc1)C(=O)N[C@@H](CO)C(=O)N[C@H](C(=O)NC(C)(C)C(=O)N[C@@H](CC(C)C)C(=O)N[C@@H](CC(=O)O)C(=O)N[C@@H](CCCNC(=N)N)C(=O)N[C@@H](CCCCNC(=O)CNC(=O)CNC(=O)CNC(=O)CNC(=O)CNC(=O)CCCCCCCCCCCCCCCCC(=O)O)C(=O)N[C@@H](C)C(=O)N[C@@H](CCC(N)=O)C(=O)NC(C)(C)C(=O)N[C@@H](CC(=O)O)C(=O)N[C@@H](Cc1ccccc1)C(=O)N[C@H](C(=O)N[C@@H](CC(N)=O)C(=O)N[C@@H](Cc1c[nH]c2ccccc12)C(=O)N[C@@H](CC(C)C)C(=O)N[C@@H](CC(C)C)C(=O)N[C@@H](C)C(=O)N[C@@H](CCC(N)=O)C(=O)N[C@@H](CO)C(=O)N1CCC[C@H]1C(=O)NCC(=O)O)C(C)C)[C@@H](C)CC [Compound 88] | 7.87 | 64% (3 nmol/kg) | ≥ 15 mg/mL | ≥ 30 mg/mL |  |  |
| CC[C@H](C)[C@H](NC(=O)[C@H](CO)NC(=O)[C@H](Cc1ccc(O)cc1)NC(=O)[C@H](CC(=O)O)NC(=O)[C@H](CO)NC(=O)[C@@H](NC(=O)[C@H](Cc1ccccc1)NC(=O)[C@@H](NC(=O)CNC(=O)[C@H](CCC(=O)O)NC(=O)C(C)(C)NC(=O)[C@H](Cc1ccc(O)cc1)NC)[C@@H](C)O)[C@@H](C)CC)C(=O)N[C@@H](C)C(=O)N[C@@H](CCCCNC(=O)CNC(=O)CNC(=O)CNC(=O)CNC(=O)CNC(=O)CCCCCCCCCCCCCCCCCCC(=O)O)C(=O)N[C@@H](CC(=O)O)C(=O)N[C@@H](CCCNC(=N)N)C(=O)NC(C)(C)C(=O)N[C@@H](C)C(=O)N[C@@H](CCC(N)=O)C(=O)NC(C)(C)C(=O)N[C@@H](CC(=O)O)C(=O)N[C@@H](Cc1ccccc1)C(=O)N[C@H](C(=O)N[C@@H](CC(N)=O)C(=O)N[C@@H](Cc1c[nH]c2ccccc12)C(=O)N[C@@H](CC(C)C)C(=O)N[C@@H](CC(C)C)C(=O)N[C@@H](C)C(=O)N[C@@H](CCC(N)=O)C(=O)N[C@@H](CO)C(=O)N1CCC[C@H]1C(=O)NCC(=O)O)C(C)C [Compound 111] |  | 44% (3 nmol/kg) | ≥ 15 mg/mL | ≥ 30 mg/mL |  |  |
| CC[C@H](C)[C@H](NC(=O)[C@H](CO)NC(=O)[C@H](Cc1ccc(O)cc1)NC(=O)[C@H](CC(=O)O)NC(=O)[C@H](CO)NC(=O)[C@@H](NC(=O)[C@H](Cc1ccccc1)NC(=O)[C@@H](NC(=O)CNC(=O)[C@H](CCC(=O)O)NC(=O)C(C)(C)NC(=O)[C@H](Cc1ccc(O)cc1)NC)[C@@H](C)O)[C@@H](C)CC)C(=O)N[C@@H](C)C(=O)N[C@@H](CC(C)C)C(=O)N[C@@H](CC(=O)O)C(=O)N[C@@H](CCCNC(=N)N)C(=O)N[C@@H](CCCCNC(=O)CNC(=O)CNC(=O)CNC(=O)CNC(=O)CNC(=O)CCCCCCCCCCCCCCCCC(=O)O)C(=O)N[C@@H](C)C(=O)N[C@@H](CCC(N)=O)C(=O)NC(C)(C)C(=O)N[C@@H](CC(=O)O)C(=O)N[C@@H](Cc1ccccc1)C(=O)N[C@H](C(=O)N[C@@H](CC(N)=O)C(=O)N[C@@H](Cc1c[nH]c2ccccc12)C(=O)N[C@@H](CC(C)C)C(=O)N[C@@H](CC(C)C)C(=O)N[C@@H](C)C(=O)N[C@@H](CCC(N)=O)C(=O)N[C@@H](CCCNC(=N)N)C(=O)N1CCC[C@H]1C(=O)N[C@@H](CO)C(=O)N[C@@H](CO)C(=O)NCC(=O)N[C@@H](C)C(=O)N1CCC[C@H]1C(=O)N1CCC[C@H]1C(=O)N1CCC[C@H]1C(=O)N[C@@H](CO)C(=O)O)C(C)C [Compound 51] |  | 50% (3 nmol/kg) |  |  | ≥ 30 mg/mL | ≥ 15 mg/mL |
| CC[C@H](C)[C@H](NC(=O)[C@H](CO)NC(=O)[C@H](Cc1ccc(O)cc1)NC(=O)[C@H](CC(=O)O)NC(=O)[C@H](CO)NC(=O)[C@@H](NC(=O)[C@H](Cc1ccccc1)NC(=O)[C@@H](NC(=O)CNC(=O)[C@H](CCC(=O)O)NC(=O)C(C)(C)NC(=O)[C@H](Cc1ccc(O)cc1)NC)[C@@H](C)O)[C@@H](C)CC)C(=O)N[C@@H](C)C(=O)N[C@@H](CCCCNC(=O)CNC(=O)CNC(=O)CNC(=O)CNC(=O)CNC(=O)CCCCCCCCCCCCCCCCC(=O)O)C(=O)N[C@@H](CC(=O)O)C(=O)N[C@@H](CCCNC(=N)N)C(=O)NC(C)(C)C(=O)N[C@@H](C)C(=O)N[C@@H](CCC(N)=O)C(=O)NC(C)(C)C(=O)N[C@@H](CC(=O)O)C(=O)N[C@@H](Cc1ccccc1)C(=O)N[C@H](C(=O)N[C@@H](CC(N)=O)C(=O)N[C@@H](Cc1c[nH]c2ccccc12)C(=O)N[C@@H](CC(C)C)C(=O)N[C@@H](CC(C)C)C(=O)N[C@@H](C)C(=O)N[C@@H](CCC(N)=O)C(=O)N[C@@H](CCCNC(=N)N)C(=O)N1CCC[C@H]1C(=O)N[C@@H](CO)C(=O)N[C@@H](CO)C(=O)NCC(=O)O)C(C)C [Compound 70] |  | 56% (3 nmol/kg) | ≥ 15 mg/mL | ≥ 30 mg/mL |  |  |
